Assay results from patent US20180296456A1, “Decapeptide-12 Modulation of Sirtuin Gene Expression in Epidermal Keratinocyte Progenitors” (Escape Therapeutics, Inc., priority 2017, published 2018).
Ends that are not written are not given here. Peptide text beside a SMILES is read from it.

Tests used:
[1] = system: SIRT2; test: SIRT2 transcription, semi-quantitative RT-PCR in human epidermal progenitors; assay type: cell-based; details: 72 h
Method: Human neonatal epidermal progenitors (Thermo Fisher Scientific, NY) were seeded in 6-well plates at a density of 2×10^5 cells/well. Each well received 2 ml of Epilife media containing 60 μM calcium chloride (Thermo Fisher Scientific, NY). Plates were incubated in a humidified chamber at 37 degrees Celsius and 5 percent CO2. Twenty-four hours later, cells were treated with various concentrations of oxyresveratrol or decapeptide-12 dissolved in PBS containing 5 percent DMSO. Control wells received vehicle only (5 percent DMSO and PBS). Final concentration of DMSO in each well was 0.05 percent.
After a 72 hour incubation period, cells were trypsinized and total RNA extracted, using RNeasy kit (Qiagen, Valencia, Calif.) according to the manufacturer's protocol.
RNA concentration was determined using nanodrop (Thermo fisher scientific, NY). Two μg of total RNA were used to synthesize cDNA using oligo dT primers and TaqMan reverse transcription reagents (Thermo fisher scientific, NY). The reaction was carried out in DNA Engine Peltier Thermal Cycler (Bio-Rad, Hercules, Calif.). The annealing temperature was 25 degrees Celsius for 10 minutes, followed by first strand synthesis at 48 degrees Celsius for 1 hour, and heat inactivation at 95 degrees Celsius for 5 minutes.
The SIRT1-7 primers (table 1) were designed using Primer3. The semi-quantitative PCR reactions were performed on a DNA Engine Peltier Thermo Cycler (Bio-Rad, Hercules, Calif.). PCR was carried under the following conditions: denaturation at 94 degrees Celsius for 2 minutes and primer extension at 54 degrees Celsius for 30 seconds in 34 cycles for SIRT 1-7 and the housekeeping gene 18S.
Samples were run and resolved on a 1.5 percent agarose gel containing 0.5 μg/ml of ethidium bromide and imaged using the FluorChem HD2 Imaging System (Protein simple, San Jose, Calif.). Densitometry analysis was carried out using the AlphaEase FC software (Protein simple, San Jose, Calif.). Intensity ratios were calculated as the intensity value for each gene divided by the intensity value of the internal control gene 18S.
The effect of the decapeptides P4, P4A, P4B, and P4C upon the transcription levels of sirtuins 1-7 was evaluated. Table 4 summarizes transcription levels for all four decapeptides with the corresponding genes, at tested concentrations of: 10, 30, 50, 100, and 300 (all in μM).

[2] = in vitro; assay type: cell-based; details: human, human epidermal progenitors
Method: Proliferation rates were determined using a TACS® MTT Cell Proliferation Kit (R&D systems, Minneapolis, Minn.). Cells were seeded at 2.5×10^4/well in 96-well plates in a humidified atmosphere with 5 percent CO2 at 37 degrees Celsius. Twenty-four hours later, decapeptide-12 or oxyresveratrol were added to the corresponding wells at varying concentrations (0, 3, 10, 30, 100, 300, and 1000 μM), and cultures were then incubated for 72 hours. The remainder of the procedure was performed following the manufacturer's protocol.
Proliferation rates for three human cell lines (epidermal progenitors, melanoblasts, and fibroblasts) were determined using a TACS® MTT Cell Proliferation Kit. Cells were seeded at 2.5×10^4/well in 96-well plates in a humidified atmosphere with 5 percent CO2 at 37 degrees Celsius. Twenty-four hours later, the decapeptides were added to the corresponding wells at varying concentrations and incubated for 72 hours. The remainder of the procedure was performed following the manufacturer's protocol.

[3] = system: melanoblasts; test: MTT cell proliferation assay, melanoblasts; assay type: cell-based, human; details: 100 μM, 72-hour incubation
In short: (§1)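 Human fibroblasts and melanoblasts were seeded at 2.5×10^4/well at 37 degrees Celsius, 5 percent CO2. Proliferation was read by MTT kit per manufacturer's protocol.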

[4] = system: fibroblasts; test: MTT cell proliferation assay, fibroblasts; assay type: cell-based, human; details: 100 μM, 72-hour incubation
In short: as §1

[5] = Trypan blue cell viability, 7 days, epidermal progenitors; assay type: cell-based; details: human, relative to control, read-out: epidermal progenitor viability after 7 days
Method: The effect of each of the decapeptides upon cell viability was also tested. In particular, cells were incubated with the decapeptide at various concentrations and then counted for viability relative to the control (untreated cells) using trypan blue. Cytotoxicity was measured according to the following formula:
[1−(# of cells in control−# of live cells in test sample)/# of cells in control]×100 percent.

[6] = system: human epidermal progenitors; test: Trypan blue dye exclusion cytotoxicity assay, 72 h, epidermal progenitors; assay type: cell-based; details: human epidermal progenitors; for cell death: 72 h, trypan blue
Method: Cellular toxicity was measured using a trypan blue dye exclusion assay. Cells were cultured in 6-well plates at a density of 4×10^5 cells/well. Each well received a different concentration of decapeptide-12 or oxyresveratrol (0, 3, 10, 30, 100, 300, and 1000 μM). Plates were incubated at 37 degrees Celsius in a humidified 5 percent CO2 chamber. After 72 h, an aliquot was taken and cells counted using a hemacytometer. Cytotoxicity was measured according to the following formula: [1−(# of cells in control−# of live cells in test sample)/# of cells in control]×100 percent.

[7] = system: patients with dyschromia; details: topical cream containing 0.01 percent, twice daily for 8 weeks; cited from earlier work
[8] = system: human skin; details: previously reported; cited from earlier work

**Q.** Which results are given for `CCCCCCCCCCCCCCCC(=O)N[C@@H](Cc1ccc(O)cc1)C(=O)N[C@@H](CCCNC(=N)N)C(=O)N[C@@H](CO)C(=O)N[C@@H](CCCNC(=N)N)C(=O)N[C@@H](CCCCN)C(=O)N[C@@H](Cc1ccc(O)cc1)C(=O)N[C@@H](CO)C(=O)N[C@@H](CO)C(=O)N[C@@H](Cc1c[nH]c2ccccc12)C(=O)N[C@@H](Cc1ccc(O)cc1)C(N)=O` [P4A, Palmitoyl-YRSRKYSSWY-amide] (HELM PEPTIDE1{[CCCCCCCCCCCCCCCC(=O)[*:2]].Y.R.S.R.K.Y.S.S.W.Y.[am]}$$$$V2.0)?
**A.** SIRT2 transcription increase relative to control ([1]; 10 μM): 14 ± 1%; SIRT2 transcription increase relative to control ([1]; 30 μM): 15 ± 1%; SIRT2 transcription increase relative to control ([1]; 50 μM): 6 ± 3%; SIRT2 transcription increase relative to control ([1]; 100 μM): 48 ± 1%; SIRT2 transcription increase relative to control ([1]; 300 μM): 30 ± 5%; viability at 72 h, 3 µM [2]: 99 ± 1%; viability at 72 h, 10 µM [2]: 99 ± 1%; viability at 72 h, 30 µM [2]: 98 ± 1%; viability at 72 h, 50 µM [2]: 97 ± 1%; viability at 72 h, 100 µM [2]: 97 ± 2%; viability at 72 h, 300 µM [2]: 96 ± 2%; viability at 72 h, 500 µM [2]: 96 ± 2%; viability at 72 h, 1000 µM [2]: 94 ± 2%; reduction in the proliferation rate [3]: 3%; reduction in the proliferation rate [4]: 3%; viability at 168 h, 3 µM [5]: 100%; viability at 168 h, 10 µM [5]: 99 ± 1%; viability at 168 h, 30 µM [5]: 98.2 ± 1%; viability at 168 h, 50 µM [5]: 97.5 ± 1%; viability at 168 h, 100 µM [5]: 96.9 ± 2%; viability at 168 h, 300 µM [5]: 95.6 ± 2%; viability at 168 h, 500 µM [5]: 94.3 ± 2%; viability at 168 h, 1000 µM [5]: 93.6 ± 3%

**Q.** Which “SIRT2 transcription increase relative to control” value ([1]; 3 μM) does the source give for YRSRKYSSWY [decapeptide-12, YRSRKYSSWY] here?
**A.** 1 ± 1%

**Q.** What about the “SIRT2 transcription increase relative to control” value ([1]; 10 μM) of the same compound?
**A.** 4.1 ± 3%

**Q.** And the “SIRT2 transcription increase relative to control” value ([1]; 10 μM, listed as P4)?
**A.** 4 ± 3%

**Q.** What about the “SIRT2 transcription increase relative to control” value ([1]; 30 μM) of the same compound?
**A.** 11.2 ± 3.7%

**Q.** And the “SIRT2 transcription increase relative to control” value ([1]; 30 μM, listed as P4)?
**A.** 11 ± 4%

**Q.** What about the “SIRT2 transcription increase relative to control” value ([1]; 50 μM) of the same compound?
**A.** 21.5 ± 4.9%

**Q.** And the “SIRT2 transcription increase relative to control” value ([1]; 50 μM, listed as P4)?
**A.** 22 ± 5%

**Q.** And the “SIRT2 transcription increase relative to control” value ([1]; 100 μM, listed as Deca)?
**A.** 35.4 ± 5.5%

**Q.** And the “SIRT2 transcription increase relative to control” value ([1]; 100 μM, listed as P4)?
**A.** 35 ± 5%

**Q.** What about the “SIRT2 transcription increase relative to control” value ([1]; 300 μM) of the same compound?
**A.** 61.1± 6.8%

**Q.** And the “SIRT2 transcription increase relative to control” value ([1]; 300 μM, listed as P4)?
**A.** 61 ± 7%

**Q.** What about the “SIRT2 transcription increase relative to control” value ([1]; 500 μM) of the same compound?
**A.** 76 ± 6.1%

**Q.** What about the “SIRT2 transcription increase relative to control” value ([1]; 1000 μM) of the same compound?
**A.** 76 ± 7.1%

**Q.** What about the viability at 72 h, 3 µM [2] of the same compound?
**A.** 100%

**Q.** And the viability at 72 h, 10 µM [2]?
**A.** 99 ± 1%

**Q.** What about the viability at 72 h, 30 µM [2] of the same compound?
**A.** 98 ± 1%

**Q.** What about the viability at 72 h, 50 µM [2] of the same compound?
**A.** 97 ± 1%

**Q.** And the viability at 72 h, 100 µM [2]?
**A.** 97 ± 1%

**Q.** And the viability at 72 h, 300 µM [2]?
**A.** 96 ± 1%

**Q.** And the viability at 72 h, 500 µM [2]?
**A.** 96 ± 2%

**Q.** What about the viability at 72 h, 1000 µM [2] of the same compound?
**A.** 94 ± 2%

**Q.** And the cell death ([6]; 100 μM)?
**A.** 3±1%

**Q.** What about the cell death ([6]; 1 mM) of the same compound?
**A.** 7±2%

**Q.** And the “cytotoxicity compared with oxyresveratrol” value [6]?
**A.** reduced cytotoxicity

**Q.** And the viability at 168 h, 3 µM [5]?
**A.** 100%

**Q.** And the viability at 168 h, 10 µM [5]?
**A.** 99 ± 1%

**Q.** And the viability at 168 h, 30 µM [5]?
**A.** 98.4 ± 1%

**Q.** What about the viability at 168 h, 50 µM [5] of the same compound?
**A.** 97.8 ± 1%

**Q.** What about the viability at 168 h, 100 µM [5] of the same compound?
**A.** 97.1 ± 1%

**Q.** And the viability at 168 h, 300 µM [5]?
**A.** 95.6 ± 2%

**Q.** And the viability at 168 h, 500 µM [5]?
**A.** 94.2 ± 2%

**Q.** And the viability at 168 h, 1000 µM [5]?
**A.** 93.8 ± 2%

**Q.** And the facial skin appearance [7]?
**A.** overall improvement in facial skin appearance

**Q.** What about the hypopigmenting efficacy [8] of the same compound?
**A.** potent hypopigmenting efficacy
